# Legend:
# PC3-M cells = test: PCa subcutaneous implantation, tumor growth; assay type: in vivo; conditions: oral 80 mg KBU2046/kg, weekly intraperitoneal docetaxel 20 mg/kg, KBU2046 added to control or docetaxel treated mice
# Description: FIG. 1A depicts the effect of chemotherapy on the growth of androgen independent PC3-M PCa cells in vitro. Data are the mean±SEM (N=3 replicates) of cell viability in a 3 day growth assay in the presence of 10 μM KBU2046 or vehicle (control) treated with docetaxel or cabazitaxel. FIG. 1B depicts the effect of chemotherapy on the growth of androgen independent PCa cells in vivo. Mice received subcutaneous implants of PC3-M cells, were monitored until tumors were detectable (250 mm^3), and then treated daily with oral 80 mg KBU2046/kg (46) or vehicle (CO) and with weekly intraperitoneal docetaxel (doc) at 0 or 20 mg/kg, beginning on day 1, and tumor size measured. Data are mean±SEM, with N=20 mice per cohort.
# PCa subcutaneous implantation: 2.5×10^5 PC3-M cells in sterile PBS were implanted into the right flank of 6-7 week old male athymic nude mice (Charles River) and tumor growth measurements were performed twice a week as previously described by us (Gordon et al., Chemotherapy-induced monoamine oxidase expression in prostate carcinoma functions as a cytoprotective resistance enzyme and associates with clinical outcomes. PLoS One 9, e104271 (2014)). […] Tumor measurements were obtained in a blinded fashion, and tumor volumes were calculated with the following formula: length×(width)^2×0.5.
# AR = test: Subcellular localization of androgen receptor, Western blot of nuclear and cytoplasmic fractions; assay type: cell-based, human; conditions: LNCaP and VCaP cells, 10 μM KBU2046
# From the text: Several considerations warranted a deeper examination of the effect of KBU2046 on AR function. […] Additionally, AR is a client protein of HSP90, AR function requires HSP90-mediated chaperone action, and direct inhibitors of HSP90 decrease client protein expression and inhibit AR function (24-26 Fang et al., J Biol Chem 271, 28697-28702 (1996); Saporita et al., Prostate 67, 509-520 (2007); and Ni et al., Mol Cell Biol 30, 1243-1253 (2010)). […] It is a selective HSP90 activity modulator (SHAM), and selectively modulates client proteins that regulate cell motility. However, the effect of KBU2046 on AR expression and function had not been examined. […]
# LNCaP or VCaP cells cultured in hormone free media were treated with R1881 (R), KBU2046 (46) and/or enzalutamide (E). […] PSA expression was measured by qRT/PCR, normalized to GAPDH and expressed as a percent of control cells (N=3 replicates); * denotes P<0.05 for groups separated by bar. […] Data are the number of viable cells, expressed as % of control (N=3 replicates); * P<0.05 compared to control. […] Data are tumor size, expressed as luminescence intensity. All data are expressed as mean±SEM.
# LNCaP and VCaP cells were pre-incubated in the charcoal-striped medium containing 10 μM KBU2046 or vehicle control for 72 hours. […] Protein was quantified by BCA assay (Thermo-Fisher Scientific, Waltham, Mass.), per manufacturer's instructions. […]
structure (smiles),measurement,setting,value
"O=C1c2ccccc2OCC1c1ccc(F)cc1 (centres unmarked) [KBU2046, 3-(4-fluorophenyl)chroman-4-one]",tumor growth,PC3-M cells,did not significantly affect
same,"AR expression or nuclear localization in response to R1881, and its inhibition by enzalutamide",AR,did not affect

# — patent US20220133894A1, “BISPHOSPHONATE-LINKED COMPOUNDS” (OREGON HEALTH & SCIENCE UNIVERSITY, priority 2019, published 2022)
